In patent US5612373A, “Certain diacyl hydrazine derivatives” (Zeneca Limited, priority 1993, dated 1997):

Experiments:
platelet aggregation = assay: test (a) modified: activity after oral dosing to dogs; format: in vivo; conditions: dosed orally to dogs at 3 mg/kg
Method: Test (a) may be modified so as to assess the effects of a test compound ex vivo on the aggregation of human blood platelets after administration of the test compound to a laboratory animal, such as a rat, rabbit, guinea pig, mouse or dog. For example, groups of fourmale, fasted Alderley Park Wistar rats are orally dosed with a test compound or appropriate vehicle, and at suitable time intervals (1, 3, 5 and 8 hours after dosing) animals are anaesthetised with fluothane and bled by heart puncture. Blood is collected into 3.2% citrate (1 part to 9 parts whole blood) and platelet poor plasma (ppp) prepared by centrifugation (4500×g for 10 minutes). […]
Equal volumes (125 μl ) of rat ppp and human prp are mixed together, ADP added, and the whole incubated (37° C.) and stirred (900 rpm) in a BioData platelet aggregometer. Aggregation is induced with ADP and agonist EC50 values calculated for human prp/rat ppp mixtures from animals dosed with test compound or vehicle. A mean concentration ratio (concentration of ADP required to cause a 50% aggregation response in human prp/rat ppp mixtures from animals dosed with antagonist, divided by the concentration of ADP to cause 50% aggregation in human prp/rat ppp mixtures from animals dosed with vehicle) is calculated at each time point. […]

[1] = molecular target: T1, purified human platelet fibrinogen receptor (GPIIb/IIIa) (Homo sapiens, UniProt P05106+P08514); assay: test (b): GPIIb/IIIa ELISA, inhibition of biotinylated fibrinogen binding; conditions: biotinylated fibrinogen 10 nM, read-out: pIC50 (-log(IC50)), 50% inhibition of biotinylated fibrinogen binding (converted)
T1 construct: Glycoprotein IIb/IIIa is isolated from human platelet lysates; from tissue
Method: (i) Preparation of human platelet lysates.
Platelet rich plasma (prp) is harvested by centrifugation (1000 rpm, 15 minutes) of whole blood anticoagulated with acid citrate dextrose (trisodium citrate 85 mM, citric acid 70 mM, d-glucose 110 mM), 1 part to 6 parts blood. Prostacyclin (PGI2, 1 μM) is added to the prp before centrifugation (2400 rpm, 15 min) and the resulting pellet is resuspended in modified Tyrodes' solution (NaCl 130 mM, KCl 26 mM, NaHCO3 12 mM, NaH2 PO4 0.5 mM, MgCl2 1 mM, CaCl2 20 mM, Glucose 12 mM, HEPES 5 mM) containing bovine serum albumin 3.5 g/L, PGI2 1 μM and hirudin 0.5 U/ml. The platelet suspension is centrifuged (2400 rpm, 15 minutes) and the resultant pellet resuspended in 500 μl of lysis buffer (octyl glucoside 50 mM, HEPES 10 mM, NaCl 150 mM, CaCl2 1 mM, MgCl2 1 mM, PMSF 1 mM, NEM 10 mM, leupeptin 0.1 mM), agitated at 4° C. for 15 minutes then centrifuged at 24000 rpm, 15 minutes. The supernatant is stored at 4° C. and the pellet re-suspended in 500 μl of lysis buffer. […]
96 well microtitre plates are coated with 100 μl purified human platelet fibrinogen receptor (GPIIb/IIIa) diluted in coating buffer (Tris-HCl 20 mM, NaCl 150 mM, CaCl2 1 mM, pH7.4) and left overnight at 4° C. […] Colour is allowed to develop for 10-15 minutes before optical densities are read at 650 nm. […]

[2] = molecular target: T2, ADP stimulated platelet aggregation in human, citrated, platelet-rich plasma (Homo sapiens, UniProt P05106+P08514); assay: test (a): inhibition of ADP stimulated platelet aggregation (Born); format: cell-based; conditions: ADP-induced aggregation, read-out: pA2 (potency of platelet aggregation inhibition) (converted)
T2 construct: aggregating human, citrated, platelet-rich plasma; endogenous in cells; host or cells: human platelets in citrated platelet-rich plasma
From the text: (i) aggregating human, citrated, platelet-rich plasma by addition of adenosine diphosphate (ADP) so as to generate a dose-response curve;
(ii) generating a dose-response curve for ADP stimulated platelet aggregation in the presence of increasing amounts of a test compound (generally in the range 10^-5 M to 10^-10 M); and
(iii) calculating a pA2 value indicating potency of platelet aggregation inhibition for the test compound, averaged over several concentrations, from the calculated 50% response value for ADP aggregation in the presence and absence of the test compound.

T1 sequence (P08514 32-887 limits assumed): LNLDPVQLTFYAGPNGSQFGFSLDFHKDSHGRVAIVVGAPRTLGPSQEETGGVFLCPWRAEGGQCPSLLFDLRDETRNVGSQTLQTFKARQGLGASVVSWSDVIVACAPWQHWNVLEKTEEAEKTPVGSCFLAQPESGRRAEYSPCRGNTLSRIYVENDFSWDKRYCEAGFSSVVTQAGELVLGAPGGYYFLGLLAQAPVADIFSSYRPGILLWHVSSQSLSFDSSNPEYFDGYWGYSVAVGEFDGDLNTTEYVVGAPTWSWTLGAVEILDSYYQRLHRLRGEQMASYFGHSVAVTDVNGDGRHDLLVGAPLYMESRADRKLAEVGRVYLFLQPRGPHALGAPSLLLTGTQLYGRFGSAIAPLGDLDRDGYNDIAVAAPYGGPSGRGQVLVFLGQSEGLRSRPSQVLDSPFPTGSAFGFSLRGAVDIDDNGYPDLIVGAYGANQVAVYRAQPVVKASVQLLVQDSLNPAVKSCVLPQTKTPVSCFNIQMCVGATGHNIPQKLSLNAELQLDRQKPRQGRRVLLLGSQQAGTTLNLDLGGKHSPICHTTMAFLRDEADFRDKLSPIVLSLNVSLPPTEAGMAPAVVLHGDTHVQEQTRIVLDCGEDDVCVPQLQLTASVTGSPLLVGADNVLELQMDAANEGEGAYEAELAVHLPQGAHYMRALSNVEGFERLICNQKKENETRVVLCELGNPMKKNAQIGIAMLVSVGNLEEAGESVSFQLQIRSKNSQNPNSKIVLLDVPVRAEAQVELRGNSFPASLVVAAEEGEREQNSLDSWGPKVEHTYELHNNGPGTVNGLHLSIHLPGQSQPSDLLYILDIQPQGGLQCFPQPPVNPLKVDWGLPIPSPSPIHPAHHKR
T1 sequence (P08514 891-1039 limits assumed): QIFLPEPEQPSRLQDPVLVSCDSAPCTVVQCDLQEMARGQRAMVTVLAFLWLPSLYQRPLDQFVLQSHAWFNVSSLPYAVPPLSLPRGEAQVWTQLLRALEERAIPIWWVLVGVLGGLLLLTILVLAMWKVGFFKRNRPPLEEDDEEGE
T1 sequence (P05106 27-788): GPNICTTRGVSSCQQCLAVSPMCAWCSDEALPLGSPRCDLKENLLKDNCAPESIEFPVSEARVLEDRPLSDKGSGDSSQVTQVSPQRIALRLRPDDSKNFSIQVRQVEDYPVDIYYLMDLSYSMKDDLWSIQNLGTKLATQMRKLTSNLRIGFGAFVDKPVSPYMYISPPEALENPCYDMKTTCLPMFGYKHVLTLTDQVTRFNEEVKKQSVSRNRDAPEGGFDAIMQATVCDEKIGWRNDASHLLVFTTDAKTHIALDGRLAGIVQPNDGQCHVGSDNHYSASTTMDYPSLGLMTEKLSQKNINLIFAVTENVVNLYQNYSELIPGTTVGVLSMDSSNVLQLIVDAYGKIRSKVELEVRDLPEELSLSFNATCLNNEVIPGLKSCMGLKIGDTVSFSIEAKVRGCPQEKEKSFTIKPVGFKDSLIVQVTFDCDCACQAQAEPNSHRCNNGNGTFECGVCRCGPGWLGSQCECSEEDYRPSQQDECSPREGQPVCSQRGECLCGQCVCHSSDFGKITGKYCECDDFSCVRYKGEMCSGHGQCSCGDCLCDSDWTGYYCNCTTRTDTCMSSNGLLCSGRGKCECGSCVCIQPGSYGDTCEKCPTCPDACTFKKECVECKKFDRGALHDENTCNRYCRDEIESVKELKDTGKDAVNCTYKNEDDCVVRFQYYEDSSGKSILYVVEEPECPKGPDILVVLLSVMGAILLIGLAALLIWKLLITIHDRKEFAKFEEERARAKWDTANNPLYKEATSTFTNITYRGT
T2 sequence (P08514 32-887 limits assumed): as the sequence (P08514 32-887 limits assumed) above
T2 sequence (P08514 891-1039 limits assumed): as the sequence (P08514 891-1039 limits assumed) above
T2 sequence (P05106 27-788): as the sequence (P05106 27-788) above

SMILES	duration of activity after oral dosing (platelet aggregation)	IC50 [1]	Kb [2]
COC(=O)COc1ccc(C(=O)NNC(=O)c2ccc(C(=N)N)cc2)cc1 [Example 12, Methyl 4-[3-(4-amidinobenzoyl)carbazoyl]phenoxyacetate]	up to 24 hours	1120 nM	200 nM
N=C(N)c1ccc(C(=O)NNC(=O)c2ccc(OCC(=O)O)cc2)cc1 [Example 13, 4-[3-(4-Amidinobenzoyl)carbazoyl]phenoxyacetic acid]		15.8 nM	7.94 nM
